The values below come from US6592885B2, “Method for making infection-resistant fabricated textile articles for biomedical applications” (priority 2001, dated 2003).

Broadly, the MBC is the smallest concentration meeting the test's criterion for killing. The MIC is the lowest concentration that inhibits growth of the organism.

Data set [1] deals with S. aureus. Kind of data set: MIC/MBC of native and heated Cipro/Oflox (heat stability). It counts as cell-based. Conditions: Staphylococcus aureus, n=6; for MBC: broth backplated on agar; for MIC: 10^6 S. aureus/ml, TSB. The protocol:
An inoculum of S. aureus was diluted to obtain a bacterial concentration of 10^6 S. aureus/ml. […] V. Mosby, St. Louis, 1986]. Antibiotic concentrations in the assay were […].

The nature of data set [2]: Structural stability to heating conditions, dye bath analysis via HPLC. Conditions: heating conditions utilized in pad/heat dyeing; data not shown. The format is physicochemical.
Where [3] appears, read: antibiotic heated to 135° C. for 1 hour (dye bath conditions), 24 hours.

Turning to `O=C(O)c1cn(C2CC2)c2cc(N3CCNCC3)c(F)cc2c1=O` [Cipro, Ciprofloxacin], the MBC is 6.5 µM in data set [1] (setting [3]) and 6.5 µM in data set [1] (native antibiotic, 24 hours).
Turning to `CC1COc2c(N3CCN(C)CC3)c(F)cc3c(=O)c(C(=O)O)cn1c23` (stereo not shown) [Oflox, Ofloxacin], the MIC in data set [1] (setting [3]) came out at 0.78 µM; in data set [1] (native antibiotic, turbidity after 24 hours), 0.78 µM. Moreover, the MBC was 9.5 µM in data set [1] (setting [3]) and 9.5 µM in data set [1] (native antibiotic, 24 hours). Further, the “structural stability upon dye bath analysis via HPLC” value in data set [2] was “no structural degradation”.
